In publication PMC7587962, “Evaluation of Cytotoxicity and α-Glucosidase Inhibitory Activity of Amide and Polyamino-Derivatives of Lupane Triterpenoids” (Molecules, 2020):

Experiments:
UACC-257 = assay: NCI-60 SRB screen: melanoma UACC-257; format: cell-based, human; details: UACC-257
U251 = assay: NCI-60 SRB screen: CNS cancer U251; format: cell-based; details: Homo sapiens, U251
NCI-H226 = assay: NCI-60 SRB screen: non-small cell lung cancer NCI-H226; format: cell-based, human; details: NCI-H226
KM12 = assay: NCI-60 SRB screen: colon cancer KM12; format: cell-based, human; details: KM12
LOX IMVI = assay: NCI-60 SRB screen: melanoma LOX IMVI; format: cell-based, human
Renal Cancer subpanel = assay: NCI-60 screen, subpanel Renal Cancer
SF-295 = assay: NCI-60 SRB screen: CNS cancer SF-295; format: cell-based, human; details: SF-295
BT-549 = assay: NCI-60 SRB screen: breast cancer BT-549; format: cell-based, human; details: BT-549
HCT-15 = assay: NCI-60 SRB screen: colon cancer HCT-15; format: cell-based, human; details: HCT-15
DU-145 = assay: NCI-60 SRB screen: prostate cancer DU-145; format: cell-based, human; details: DU-145
OVCAR-3 = assay: NCI-60 SRB screen: ovarian cancer OVCAR-3; format: cell-based, human; details: OVCAR-3
HCT-116 = assay: NCI-60 SRB screen: colon cancer HCT-116; format: cell-based; details: Homo sapiens, 48 h, HCT-116
MDA-MB-435 = assay: NCI-60 SRB screen: melanoma MDA-MB-435; format: cell-based, human; details: MDA-MB-435
SK-MEL-5 = assay: NCI-60 SRB screen: melanoma SK-MEL-5; format: cell-based, human; details: SK-MEL-5
CAKI-1 = assay: NCI-60 SRB screen: renal cancer CAKI-1; format: cell-based, human; details: CAKI-1
UACC-62 = assay: NCI-60 SRB screen: melanoma UACC-62; format: cell-based, human; details: UACC-62
A549/ATCC = assay: NCI-60 SRB screen: non-small cell lung cancer A549/ATCC; format: cell-based, human; details: A549/ATCC
ACHN = assay: NCI-60 SRB screen: renal cancer ACHN; format: cell-based, human
SW-620 = assay: NCI-60 SRB screen: colon cancer SW-620; format: cell-based; details: Homo sapiens, 48 h, SW-620
MOLT-4 = assay: NCI-60 SRB screen: leukemia MOLT-4; format: cell-based; details: Homo sapiens, 48 h, MOLT-4
MCF7 = assay: NCI-60 SRB screen: breast cancer MCF7; format: cell-based; details: Homo sapiens, 48 h, MCF7
HT29 = assay: NCI-60 SRB screen: colon cancer HT29; format: cell-based; details: Homo sapiens, HT29
SNB-19 = assay: NCI-60 SRB screen: CNS cancer SNB-19; format: cell-based, human; details: SNB-19
786-0 = assay: NCI-60 SRB screen: renal cancer 786-0; format: cell-based, human; details: 786-0
NCI/ADR-RES = assay: NCI-60 SRB screen: ovarian cancer NCI/ADR-RES; format: cell-based, human
HS 578T = assay: NCI-60 SRB screen: breast cancer HS 578T; format: cell-based, human; details: HS 578T
SN12C = assay: NCI-60 SRB screen: renal cancer SN12C; format: cell-based, human
EKVX = assay: NCI-60 SRB screen: non-small cell lung cancer EKVX; format: cell-based, human
OVCAR-8 = assay: NCI-60 SRB screen: ovarian cancer OVCAR-8; format: cell-based, human; details: OVCAR-8
CCRF-CEM = assay: NCI-60 SRB screen: leukemia CCRF-CEM; format: cell-based; details: Homo sapiens, 48 h
M14 = assay: NCI-60 SRB screen: melanoma M14; format: cell-based, human; details: M14
MALME-3M = assay: NCI-60 SRB screen: melanoma MALME-3M; format: cell-based, human; details: MALME-3M
Prostate cancer subpanel = assay: NCI-60 screen, subpanel Prostate cancer
Leukemia subpanel = assay: NCI-60 screen, subpanel Leukemia
NCI-H23 = assay: NCI-60 SRB screen: non-small cell lung cancer NCI-H23; format: cell-based, human; details: NCI-H23
MDA-MB-231/ATCC = assay: NCI-60 SRB screen: breast cancer MDA-MB-231/ATCC; format: cell-based; details: Homo sapiens, 48 h
K-562 = assay: NCI-60 SRB screen: leukemia K-562; format: cell-based, human; details: K-562
[1] = Homo sapiens, five concentrations, 48 h, SRB, read-out: GI50
[2] = single dose 10 µM, read-out: Percentage Cell Growth
[3] = five concentrations, SRB, read-out: GI50

C=C(C)[C@@H]1CC[C@]2(C(=O)NCCCN)CC[C@]3(C)[C@H](CC[C@@H]4[C@@]5(C)CCC(=O)C(C)(C)[C@@H]5CC[C@]43C)[C@@H]12 [Compound 10]
GI50 (UACC-257; [1]): 20.6 µM | Percentage Cell Growth (UACC-257; single dose 10 µM): −46.67% | activity at 10 µM (U251; U-251, 48 h, single dose 10 µM, read-out: Percentage Cell Growth): -13.8% | GI50 (U251; U-251, five concentrations, 48 h, SRB, read-out: GI50): 17.7 µM | GI50 (NCI-H226; [1]): 21.2 µM | Percentage Cell Growth (NCI-H226; single dose 10 µM): 36.64% | GI50 (KM12; [1]): 17.3 µM | Percentage Cell Growth (KM12; single dose 10 µM): −25.31% | GI50 (LOX IMVI; [1]): 25.5 µM | Percentage Cell Growth (LOX IMVI; single dose 10 µM): 1.37% | MID b, average sensitivity of all cell line of particular subpanel (Renal Cancer subpanel): 23.80 µM | Selectivity, ratio MID a: MID b (Renal Cancer subpanel): 0.86 | GI50 (SF-295; [1]): 22.6 µM | Percentage Cell Growth (SF-295; single dose 10 µM): −26.39% | Percentage Cell Growth (BT-549; single dose 10 µM): −2.14% | GI50 (BT-549; [1]): 23.8 µM | Percentage Cell Growth (HCT-15; single dose 10 µM): −22.06% | GI50 (HCT-15; [1]): 21.7 µM | Percentage Cell Growth (DU-145; single dose 10 µM): −100.00% | GI50 (DU-145; [1]): 17.5 µM | GI50 (OVCAR-3; [1]): 15.7 µM | Percentage Cell Growth (OVCAR-3; single dose 10 µM): −45.89% | activity at 10 µM (HCT-116; [2]): 1.97% | GI50 (HCT-116; [3]): 13.9 µM | GI50 (MDA-MB-435; [1]): 28.7 µM | Percentage Cell Growth (MDA-MB-435; single dose 10 µM): −32.41% | GI50 (SK-MEL-5; [1]): 19.4 µM | Percentage Cell Growth (SK-MEL-5; single dose 10 µM): −23.93% | Percentage Cell Growth (CAKI-1; single dose 10 µM): −54.52% | GI50 (CAKI-1; [1]): 21.9 µM | GI50 (UACC-62; [1]): 27.4 µM | Percentage Cell Growth (UACC-62; single dose 10 µM): −22.62% | Percentage Cell Growth (A549/ATCC; single dose 10 µM): −4.70% | GI50 (A549/ATCC; [1]): 19.6 µM | GI50 (ACHN; [1]): 21.7 µM | Percentage Cell Growth (ACHN; single dose 10 µM): −49.24% | activity at 10 µM (SW-620; [2]): -36.2% | GI50 (SW-620; [3]): 22.5 µM | activity at 10 µM (MOLT-4; [2]): 2.76% | GI50 (MOLT-4; [3]): 12.9 µM | activity at 10 µM (MCF7; [2]): -8.46% | GI50 (MCF7; [3]): 10.7 µM | activity at 10 µM (HT29; HT-29, 48 h, single dose 10 µM, read-out: Percentage Cell Growth): 3.9% | GI50 (HT29; HT-29, five concentrations, 48 h, SRB, read-out: GI50): 6.95 µM | GI50 (SNB-19; [1]): 24.7 µM | Percentage Cell Growth (SNB-19; single dose 10 µM): −29.49% | Percentage Cell Growth (786-0; single dose 10 µM): −22.61% | GI50 (786-0; [1]): 23.2 µM | GI50 (NCI/ADR-RES; [1]): 24.8 µM | Percentage Cell Growth (NCI/ADR-RES; single dose 10 µM): −9.52% | Percentage Cell Growth (HS 578T; single dose 10 µM): −4.98% | GI50 (HS 578T; [1]): 40.5 µM | GI50 (SN12C; [1]): 20.8 µM | Percentage Cell Growth (SN12C; single dose 10 µM): −34.74% | GI50 (EKVX; [1]): 23.3 µM | Percentage Cell Growth (EKVX; single dose 10 µM): −15.68% | GI50 (OVCAR-8; [1]): 27.7 µM | Percentage Cell Growth (OVCAR-8; single dose 10 µM): −3.81% | activity at 10 µM (CCRF-CEM; [2]): 1.39% | GI50 (CCRF-CEM; [3]): 22.1 µM | GI50 (M14; [1]): 24.7 µM | Percentage Cell Growth (M14; single dose 10 µM): 5.07% | GI50 (MALME-3M; [1]): 23.3 µM | Percentage Cell Growth (MALME-3M; single dose 10 µM): −18.76% | MID b, average sensitivity of all cell line of particular subpanel (Prostate cancer subpanel): 15.05 µM | Selectivity, ratio MID a: MID b (Prostate cancer subpanel): 1.36 | MID b, average sensitivity of all cell line of particular subpanel (Leukemia subpanel): 14.59 µM | Selectivity, ratio MID a: MID b (Leukemia subpanel): 1.40 | GI50 (NCI-H23; [1]): 22.6 µM | Percentage Cell Growth (NCI-H23; single dose 10 µM): −8.47% | activity at 10 µM (MDA-MB-231/ATCC; MDA-MB-231/ATCC, single dose 10 µM, read-out: Percentage Cell Growth): -47.8% | GI50 (MDA-MB-231/ATCC; MDA-MB-231, MDA-MB-31/ATCC, five concentrations, SRB, read-out: GI50): 21.1 µM | GI50 (K-562; Homo sapiens, K562, five concentrations, 48 h, SRB, read-out: GI50): 9.84 µM | Percentage Cell Growth (K-562; single dose 10 µM): 1.10%
